Values quoted from earlier work as cited in article PMC4061760 (Tetrahedron, 2009).

Test system: Plk1 PBD
Conditions: 5-mer phosphopeptide

PLHSpT [Peptide 22]
interaction with the Plk1 PBD: specifically interacts with the Plk1 PBD with high affinity
